In ChEMBL document CHEMBL2413021, “Regioselective synthesis of 6-aryl-benzo[h][1,2,4]-triazolo[5,1-b]quinazoline-7,8-diones as potent antitumoral agents” (Bioorg Med Chem Lett, 2013):

Tests used:
HepG2 = experiment: Cytotoxicity against human HepG2 cells after 48 hrs by MTT assay; assay type: functional, cell-based; settings: HepG2, 48 h
SGC-7901 = experiment: Cytotoxicity against human SGC7901 cells after 48 hrs by MTT assay; assay type: functional, cell-based; settings: SGC-7901, 48 h

Structure (SMILES) | IC50 (HepG2) | IC50 (SGC-7901)
COc1ccc(-c2c3c(nc4ncnn24)-c2ccccc2C(=O)C3=O)cc1 | 1.71 µM | 1310 nM
O=C1C(=O)c2c(nc3ncnn3c2-c2cccs2)-c2ccccc21 | 2.13 µM | 1450 nM
O=C1C(=O)c2c(nc3ncnn3c2-c2ccc([N+](=O)[O-])cc2)-c2ccccc21 | 4.74 µM | 2650 nM
Cc1ccc(-c2c3c(nc4ncnn24)-c2ccccc2C(=O)C3=O)cc1 | 1.19 µM | 1710 nM
Clc1ccc(-c2c3c(nc4ncnn24)c2ccccc2c2nc4ccccc4nc23)cc1 | > 200 µM | > 200000 nM
O=C1C(=O)c2c(nc3ncnn3c2-c2ccccc2)-c2ccccc21 | 3.45 µM | 2160 nM
O=C1C(=O)c2c(nc3ncnn3c2-c2ccc(Cl)cc2Cl)-c2ccccc21 | 2.99 µM | 1830 nM
O=C1C(=O)c2c(nc3ncnn3c2-c2ccc(Cl)cc2)-c2ccccc21 | 24.9 µM | 34900 nM
O=C1C(=O)c2c(nc3ncnn3c2-c2ccc(F)cc2)-c2ccccc21 | 7.85 µM | 6120 nM
O=C1C(=O)c2c(nc3ncnn3c2-c2cccc([N+](=O)[O-])c2)-c2ccccc21 | 15.3 µM | 9880 nM
COc1cc(-c2c3c(nc4ncnn24)-c2ccccc2C(=O)C3=O)cc(OC)c1OC | 17.9 µM | 59200 nM
COc1cccc2c1C(=O)c1c(O)c3c(c(O)c1C2=O)C[C@@](O)(C(=O)CO)C[C@@H]3O[C@H]1C[C@H](N)[C@H](O)[C@H](C)O1 [DOXORUBICIN] | 1.02 µM | 5720 nM
